Test results as given in patent US9290452B2, “Multicomponent crystalline system comprising deferasirox and isonicotinamide and a process for the preparation thereof” (BASF SE, priority 2012, dated 2016).

Assays:
[1] = Aqueous solubility determination (suspension equilibration for three days, HPLC); format: physicochemical; details: pure water, 25±2° C. (ambient temperature), about three days of suspension equilibration, filtered solution
Description: The aqueous solubility of Deferasirox free drug substance and the multicomponent crystalline system of the present invention (Deferasirox-Isonicotinamide co-crystal) was determined in water at ambient temperature after about three days of suspension equilibration using HPLC for the determination of the concentration in the filtered solution.
Solubility determinations were carried out in pure water at 25±2° C. Suspensions with about 50 mg the solid form, either the co-crystal of the present invention or deferasirox free drug substance in 7 mL water were prepared an equilibrated for three days before the solution phase was filtered off and tested by HPLC.
HPLC was carried out on an Agilent 1100 HPLC chromatograph equipped with a UV-vis detection unit. The column type used was a Waters XTerra MS C18, 100×4.6 mm, 5 μm (FK-CC01F). […]
882 mg of Deferasirox and 290 mg of isonicotinamide are dissolved in a mixture of 15 ml acetone and 3 ml THF by shortly heating to reflux temperature. […] Then suspension is filtered and the concentration in the solution determined by HPLC. […]

[2] = Dynamic water vapor adsorption measurements (DVS); format: physicochemical; details: water vapor sorption
Source text: It is known that the anhydrous form A of Deferasirox converts to a hydrate form upon exposure to high relative humidity, therefore anhydrous Deferasirox is hygroscopic. The multicomponent crystalline system described here is characterized in that it has good hygroscopic properties, i.e. absorb little water at high relative humidity. This is evident from table 1 below, which compares the water contents of the multicomponent crystalline system and Deferasirox free drug substance at 50% and 95% relative humidity. The data originate from dynamic water vapor adsorption measurements. The water vapor sorption measurement is a suitable method for investigating the hygroscopic properties of solid substances. Water vapor sorption measurements can be carried out in different ways. In general, in this connection, a small sample of ca. 10-30 mg is introduced into a microbalance in a suitable sample carrier. The sample is then exposed to different relative humidities in accordance with a defined program, the change in the sample mass being simultaneously recorded over the time. […]
Dynamic water vapor adsorption measurements were carried out using an SPS11 100 n instrument, manufactured by “Projekt Messtechnik” in Ulm, Germany. […] The sample was then subjected to preselected relative humidities in accordance with a defined program, the change in mass being determined over the time. […]

For `O=C(O)c1ccc(-n2nc(-c3ccccc3O)nc2-c2ccccc2O)cc1` [Deferasirox free drug substance, 4-[3,5-bis(2-hydroxyphenyl)-1H-1,2,4-triazol-1-yl]benzoic acid], the solubility thermodynamic at 3 days [1] was under 1 µg/mL, the “H2O content at 50% r.h.” value ([2]; 50% relative humidity) was 0.5% and the “H2O content at 95% r.h.” value ([2]; 95% relative humidity) was 3.6%.
